Measurements: paper PMC4147775, “Stimulation of Hepatic Apolipoprotein A-I Production by Novel Thieno-Triazolodiazepines: Roles of the Classical Benzodiazepine Receptor, PAF Receptor, and Bromodomain Binding” (Lipid insights, 2013)
Like-named read-outs stand apart in the source and are kept apart here.

Assays:
[1] = Cytotoxicity: ATP level (Cell Titer Glo); format: cell-based, human; conditions: 72 hours; for ATP level in human hepatocytes: result in words
[2] = test system: apoA-I production by primary human hepatocytes; assay: apoA-I production by primary human hepatocytes (ELISA); format: cell-based; conditions: cultured human hepatocytes, 72 hours, maximal stimulation
BRD4(2) = target: T1, BRD4(2) (Homo sapiens, UniProt O60885); assay: Protein stability shift assay (thermal shift), BRD4(2); format: binding; conditions: 10 μM ligand
T1 construct: the second as compared with the first bromodomain of these BRDs

central BZD receptor = assay: Binding to central BZD receptor, 3H-flunitrazepam, rat cerebral cortex membranes; conditions: for competition with labeled flunitrazepam: rat brain membranes, result in words (Figure 3A)
BRD2(2) = target: T2, BRD2(2) (Homo sapiens, UniProt P25440); assay: Protein stability shift assay (thermal shift), BRD2(2); format: binding; conditions: 10 μM ligand
T2 construct: the second as compared with the first bromodomain of these BRDs
T2 sequence (P25440 344-453 limits assumed): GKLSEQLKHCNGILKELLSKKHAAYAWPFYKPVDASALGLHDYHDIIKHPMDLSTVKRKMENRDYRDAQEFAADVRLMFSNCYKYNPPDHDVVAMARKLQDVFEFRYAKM

[3] = Metabolic stability in human hepatocytes; format: in vitro ADME; conditions: cryopreserved human hepatocytes, donor 1, 10 μM, read-out: stability in human hepatocytes (% remaining after 120 min)
BRD2(1) = target: T3, BRD2(1) (Homo sapiens, UniProt P25440); assay: Protein stability shift assay (thermal shift), BRD2(1); format: binding; conditions: 10 μM ligand
T3 construct: the second as compared with the first bromodomain of these BRDs
T3 sequence (P25440 74-180 limits assumed): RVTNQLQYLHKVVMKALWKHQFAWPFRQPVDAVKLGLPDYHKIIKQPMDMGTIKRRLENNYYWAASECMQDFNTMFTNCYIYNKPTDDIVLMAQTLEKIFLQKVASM

BRDT(1) = target: T4, BRDT(1) (Homo sapiens, UniProt Q58F21); assay: Protein stability shift assay (thermal shift), BRDT(1); format: binding; conditions: 10 μM ligand
T4 construct: the second as compared with the first bromodomain of these BRDs

BAZ2B = target: T5, BAZ2B (Homo sapiens, UniProt Q9UIF8); assay: Protein stability shift assay (thermal shift), BAZ2B; format: binding; conditions: 10 μM ligand
T5 construct: Thermal shift (Δtm^obs) of human bromodomains in the presence of 10 μM compound
T5 sequence (Q9UIF8 2060-2164 limits assumed): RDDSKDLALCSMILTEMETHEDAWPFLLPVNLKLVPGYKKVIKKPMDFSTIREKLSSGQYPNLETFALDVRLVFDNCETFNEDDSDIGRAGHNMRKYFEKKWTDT

CREBBP = target: T6, CREBBP (Homo sapiens, UniProt Q92793); assay: Protein stability shift assay (thermal shift), CREBBP; format: binding; conditions: 10 μM ligand
T6 construct: Thermal shift (Δtm^obs) of human bromodomains in the presence of 10 μM compound
T6 sequence (Q92793 1085-1192 limits assumed): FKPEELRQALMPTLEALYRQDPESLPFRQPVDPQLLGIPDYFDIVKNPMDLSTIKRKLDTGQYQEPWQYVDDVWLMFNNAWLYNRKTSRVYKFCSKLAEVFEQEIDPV

[4] = test system: fibrosarcoma cells (HT1080); assay: Cytotoxicity: mitochondrial membrane potential (TMRM); conditions: for mitochondrial membrane potential in fibrosarcoma cells: 100 μM, result in words; for IC50: read-out: mitochondrial membrane potential in fibrosarcoma cells, IC50
PB1(5) = target: T7, PB1(5) (Homo sapiens, UniProt Q86U86); assay: Protein stability shift assay (thermal shift), PB1(5); format: binding; conditions: 10 μM ligand
T7 construct: Thermal shift (Δtm^obs) of human bromodomains in the presence of 10 μM compound
T7 sequence (Q86U86 653-763 limits assumed): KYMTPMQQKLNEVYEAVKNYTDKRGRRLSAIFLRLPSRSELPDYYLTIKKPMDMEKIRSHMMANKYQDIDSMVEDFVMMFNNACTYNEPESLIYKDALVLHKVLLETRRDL

BRDT(2) = target: T8, BRDT(2) (Homo sapiens, UniProt Q58F21); assay: Protein stability shift assay (thermal shift), BRDT(2); format: binding; conditions: 10 μM ligand
T8 construct: the second as compared with the first bromodomain of these BRDs

BRD3(1) = target: T9, BRD3(1) (Homo sapiens, UniProt Q15059); assay: Protein stability shift assay (thermal shift), BRD3(1); format: binding; conditions: 10 μM ligand
T9 construct: the second as compared with the first bromodomain of these BRDs
T9 sequence (Q15059 34-140 limits assumed): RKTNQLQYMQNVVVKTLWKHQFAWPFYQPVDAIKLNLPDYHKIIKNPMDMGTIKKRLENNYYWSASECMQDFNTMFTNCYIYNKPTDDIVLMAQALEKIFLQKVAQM

PCAF = target: T10, PCAF (Homo sapiens, UniProt Q92831); assay: Protein stability shift assay (thermal shift), PCAF; format: binding; conditions: 10 μM ligand
T10 construct: Thermal shift (Δtm^obs) of human bromodomains in the presence of 10 μM compound
T10 sequence (Q92831 723-827 limits assumed): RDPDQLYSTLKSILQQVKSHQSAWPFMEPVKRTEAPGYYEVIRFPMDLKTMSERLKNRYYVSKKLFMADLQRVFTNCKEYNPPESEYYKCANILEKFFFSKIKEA

BRD3(2) = BRD3(2) (Homo sapiens, UniProt Q15059); assay: Protein stability shift assay (thermal shift), BRD3(2); format: binding; set-up: the second as compared with the first bromodomain of these BRDs; conditions: 10 μM ligand
BRD3(2), sequence (Q15059 306-415 limits assumed): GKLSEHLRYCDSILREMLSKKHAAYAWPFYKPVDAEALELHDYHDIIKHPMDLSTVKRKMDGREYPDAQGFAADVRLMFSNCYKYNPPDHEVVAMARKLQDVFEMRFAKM

[5] = target: T11, human recombinant PAF receptor (Homo sapiens, UniProt P25105); assay: Binding to PAF receptor, 3H-C16-PAF, CHO cells; conditions: for competition with labeled PAF: cells expressing the human PAF receptor, result in words (Figure 3B)
T11 construct: expressed in transfected cells; host or cells: CHO cells
T11 sequence (P25105 whole entry): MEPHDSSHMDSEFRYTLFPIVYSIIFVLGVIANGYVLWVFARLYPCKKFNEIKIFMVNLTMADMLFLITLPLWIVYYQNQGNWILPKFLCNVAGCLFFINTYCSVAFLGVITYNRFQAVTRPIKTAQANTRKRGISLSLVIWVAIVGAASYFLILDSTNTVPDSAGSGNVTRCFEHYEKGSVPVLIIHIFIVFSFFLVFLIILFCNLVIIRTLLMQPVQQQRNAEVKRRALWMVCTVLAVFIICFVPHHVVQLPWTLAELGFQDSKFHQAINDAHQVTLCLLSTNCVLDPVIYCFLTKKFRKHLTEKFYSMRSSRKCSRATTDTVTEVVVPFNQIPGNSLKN

apoA-I = test system: apoA-I; set-up: method as in PMID 21449977; conditions: mice transgenic for human apoA-I; cited from earlier work
BRD4(1) = BRD4(1) (Homo sapiens, UniProt O60885); assay: Protein stability shift assay (thermal shift), BRD4(1); format: binding; set-up: the second as compared with the first bromodomain of these BRDs; conditions: 10 μM ligand
[6] = test system: apoA-I production by Hep-G2 cells; assay: apoA-I production by HepG2 cells (ELISA); format: cell-based, human; conditions: result in words (Figure 5)
Description: On the day of the experiment, supernatant medium was discarded and replaced by a solution of test compounds in HCM™ medium, which was prepared from DMSO stock solutions immediately before use. Stock solution concentrations assured that DMSO never exceeded 0.1% in the assay, as DMSO alone exerts significant effects on hepatocyte gene expression. Each concentration was run in triplicate whereas multiple wells were prepared for vehicle (DMSO) controls. The cells were cultured in the presence of the studied compounds and DMSO control for 72 hours at 37°C in 5% CO2 in air. The supernatants were replaced by a fresh dilution of test compounds after 24 hours and 48 hours, respectively. […]
After removal of the supernatants after 72 hours, all wells were washed 3 times with 200 μL isotonic 0.29 MD-mannitol and 25 μL d H2O was added to each well. The protein content of each well was determined using the Pierce® BCA Protein Assay Kit according to kit instructions and calculated as micrograms cellular protein per well.
For apoA-I detection, the human apoA1 ELISA kit from Mabtech Nacka, Sweden (Catalog no. 3710-1H-20) was used. […] Finally, the chromogenic substrate was added, and absorbance was measured at 450 nm.
The apoA-I content of each sample was calculated using the standard curve generated with each plate and was expressed as ng apoA-I per mg of cellular protein.

[7] = test system: fibrosarcoma cells (HT1080); conditions: read-out: mitochondrial membrane potential, IC50, cited from earlier work

In the case of Cc1nnc2n1-c1sccc1C(c1ccccc1)=NC2 [MDCO-3760], the “ATP level in human hepatocytes” value ([1]; 100 μM) is reported as “no effect at 100 μM (n = 3)”, the “stimulation of apoA-I production” value [2] is reported as “up to 3 fold” and the “Thermal shift (ΔTm obs) BRD4(2)” value (BRD4(2)) is reported as 2.8. The “competition with labeled flunitrazepam” value (central BZD receptor) was “able to compete”, the “Thermal shift (ΔTm obs) BRD2(2)” value (BRD2(2)) was 2.6 and the remaining at 2 h, 10 μM [3] was 105%. The “Thermal shift (ΔTm obs) BRD2(1)” value (BRD2(1)) was 0.1, the “Thermal shift (ΔTm obs) BRDT(1)” value (BRDT(1)) was 0.4 and the “Thermal shift (ΔTm obs) BAZ2B” value (BAZ2B) was 0.1. For the same compound, the “Thermal shift (ΔTm obs) CREBBP” value (CREBBP) was −0.1, the “mitochondrial membrane potential in fibrosarcoma cells” value ([4]; 72 hours) was “no effect at 100 μM (n = 5)” and the “Thermal shift (ΔTm obs) PB1(5)” value (PB1(5)) was −4.7. The “Thermal shift (ΔTm obs) BRDT(2)” value (BRDT(2)) was 3.2, the “Thermal shift (ΔTm obs) BRD3(1)” value (BRD3(1)) was 1.9 and the “Thermal shift (ΔTm obs) PCAF” value (PCAF) was 2.2. For the same compound, the “Thermal shift (ΔTm obs) BRD3(2)” value (BRD3(2)) was 3.0, the “competition with labeled PAF” value [5] was “able to compete” and the “plasma levels of apoA-I” value (apoA-I) was “increased”. The “Thermal shift (ΔTm obs) BRD4(1)” value (BRD4(1)) was 2.7.

Compound C[C@]12CC[C@H]3[C@@H](CCC4=CC(=O)CC[C@@]43C)[C@@H]1CC[C@@H]2O [Testosterone, reference compound] has a remaining at 2 h, 10 μM [3] of 64%.

With Cc1sc2c(c1C)C(c1ccc(Cl)cc1)=NC(CC(=O)OC(C)(C)C)c1nnc(C)n1-2 (single isomer, unassigned; (+)) [(+)-JQ1, reference compound] the “effect on apoA-I production” value [6] was “very effective stimulator of apoA-I production”.

CCCCCCCCCCCCCCCCOC[C@H](COP(=O)([O-])OCC[N+](C)(C)C)OC(C)=O [C16-PAF, reference compound] showed an IC50 ([5]; 3H-C16-PAF, CHO cells expressing human recombinant PAF receptor, reference) of 0.0007 µM.

In the case of COCc1c(C(C)C)nc(C(C)C)c(/C=C/[C@@H](O)C[C@@H](O)CC(=O)O)c1-c1ccc(F)cc1 [Cerivastatin], the “ATP level in human hepatocytes, reduction” value ([1]; 20 μM) is listed as 59 ± 10% reduction at 20 μM (n = 3), the IC50 ([4]; Homo sapiens, HT-1080, 72 h) is listed as 2.6 µM and the IC50 ([7]; ref CEREP Cytotoxicity Application Note) is listed as 0.66 µM. The IC50 ([7]; ref CEREP study report 14547) was 1.1 µM and the IC50 ([7]; ref O’Brien et al. Arch toxicol. 2006;80:580–604) was 3 µM.

In the case of N#CC(C#N)=NNc1ccc(OC(F)(F)F)cc1 [FCCP, reference compound], the “ATP level in human hepatocytes, reduction” value ([1]; 100 μM) is reported as 96 ± 0.7% reduction at 100 μM (n = 2) and the IC50 ([4]; 72 hours) is reported as 17 µM.

For Cc1nnc2n1-c1sccc1C(c1ccc3c(c1)OCO3)=NC2 [MDCO-3783], the “ATP level in human hepatocytes” value ([1]; 100 μM) was “no effect at 100 μM (n = 3)”, the “stimulation of apoA-I production” value [2] was “up to 3 fold” and the “Thermal shift (ΔTm obs) BRD4(2)” value (BRD4(2)) was 1.9. The “competition with labeled flunitrazepam” value (central BZD receptor) was “did not compete”, the “effect on apoA-I production” value [6] was “potency and efficacy comparable to that of (−)-JQ1” and the “Thermal shift (ΔTm obs) BRD2(2)” value (BRD2(2)) was 1.8. The remaining at 2 h, 10 μM [3] was 97%, the “Thermal shift (ΔTm obs) BRD2(1)” value (BRD2(1)) was 0.3 and the “Thermal shift (ΔTm obs) BRDT(1)” value (BRDT(1)) was 0.3. The “Thermal shift (ΔTm obs) BAZ2B” value (BAZ2B) was 0.0, the “Thermal shift (ΔTm obs) CREBBP” value (CREBBP) was −0.1 and the “mitochondrial membrane potential in fibrosarcoma cells” value ([4]; 72 hours) was “no effect at 100 μM (n = 5)”. For the same compound, the “Thermal shift (ΔTm obs) PB1(5)” value (PB1(5)) was 0.0, the “Thermal shift (ΔTm obs) BRDT(2)” value (BRDT(2)) was 2.4 and the “Thermal shift (ΔTm obs) BRD3(1)” value (BRD3(1)) was 1.8. For the same compound, the “Thermal shift (ΔTm obs) PCAF” value (PCAF) was 1.9, the “Thermal shift (ΔTm obs) BRD3(2)” value (BRD3(2)) was 2.1 and the “competition with labeled PAF” value [5] was “only weakly displaced”. For the same compound, the “Thermal shift (ΔTm obs) BRD4(1)” value (BRD4(1)) was 2.4.

CN1C(=O)CN=C(c2ccccc2)c2cc(Cl)ccc21 [Diazepam, reference compound] gave an IC50 (central BZD receptor; 3H-flunitrazepam, rat cerebral cortex membranes, reference) of 0.02 µM.

In the case of O=C(O)Cc1ccccc1Nc1c(Cl)cccc1Cl [Diclofenac, reference compound], the remaining at 2 h, 10 μM [3] is reported as 70 ± 10%.
